28 compounds from patent US5306720A, “Piperidine derivative and pharmaceutical composition” (priority 1985, dated 1994) can be followed below.

SMILES strings stand for the structures. Counter-ions that a name gives are not always drawn.

T1 sequence (P21836 32-614): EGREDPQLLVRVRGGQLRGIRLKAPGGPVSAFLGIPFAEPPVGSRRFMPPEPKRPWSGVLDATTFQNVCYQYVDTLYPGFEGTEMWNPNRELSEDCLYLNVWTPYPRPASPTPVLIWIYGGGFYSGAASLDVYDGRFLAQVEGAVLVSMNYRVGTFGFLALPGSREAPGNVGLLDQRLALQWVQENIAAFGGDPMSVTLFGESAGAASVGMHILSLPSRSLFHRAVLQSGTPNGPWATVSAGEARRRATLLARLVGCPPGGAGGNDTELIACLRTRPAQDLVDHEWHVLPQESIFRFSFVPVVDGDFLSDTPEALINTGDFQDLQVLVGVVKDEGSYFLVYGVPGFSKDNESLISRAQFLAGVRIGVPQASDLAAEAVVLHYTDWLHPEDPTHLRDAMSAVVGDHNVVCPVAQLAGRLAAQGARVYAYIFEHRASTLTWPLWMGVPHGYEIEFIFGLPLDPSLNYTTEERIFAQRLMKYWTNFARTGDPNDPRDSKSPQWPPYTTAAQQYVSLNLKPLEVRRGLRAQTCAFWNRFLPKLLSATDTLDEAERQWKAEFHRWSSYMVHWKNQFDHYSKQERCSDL

The first series concerns the target T1, acetylcholinesterase (Mus musculus, UniProt P21836).
T1 construct: Using a mouse brain homogenate as a source of acetylcholinesterase; from tissue; host or cells: mouse brain homogenate
Put plainly: biochemical. To be noted: mouse brain homogenate; thiocholine method, absorbance at 412 nm; read-out: AChE inhibitory activity IC50. The format is biochemical.
Method: Acetylcholinesterase Inhibitory Action using Mouse Brain Homogenate
Using a mouse brain homogenate as a source of acetylcholinesterase, the esterase activity was measured by a thiocholine method. Acetylcholine as a substrate, the compound of the invention as a substance to test and 5,5'-dithio-bis(2-nitrobenzoic acid), called also DTNB, were added to the mouse brain homogenate. After incubation, thiocholine produced was reacted with DTNB to form a yellow product.
What is called IC50 is the midpoint of a concentration-inhibition curve. Turning to `O=C1c2cccnc2C(=O)N1CCC1CCN(Cc2ccccc2)CC1` [Example 58], the IC50 stood at 13 nM.
On the same count and under the same terms, for `CN(CCC1CCN(Cc2ccccc2)CC1)C(=O)c1ccc(S(=O)(=O)C2CCCC2)cc1` [Example 6, N-methyl-N-[4'-(1'-benzylpiperidine)ethyl]-4-cyclopentylsulfonylbenzamide.hydrochloride] the value was 21 nM; for `O=C1c2ccc([N+](=O)[O-])cc2C(=O)N1CCC1CCN(Cc2ccccc2)CC1` [Example 7, N-[2-(N'-benzylpiperidino-4)ethyl]-4-nitrophthalimide.hydrochloride], 14 nM; for `O=C(NCCC1CCN(Cc2ccccc2)CC1)c1ccc([N+](=O)[O-])cc1` [Example 71], 55 nM.
Same read-out and setting: for `O=C(NCCC1CCN(Cc2ccccc2)CC1)c1ccc(SCc2ccccc2)cc1` [Example 88] the value was 49 nM.
The same measure, in the same setting: for `O=C(NCc1ccccc1)c1ccc2c(c1)C(=O)N(CCC1CCN(Cc3ccccc3)CC1)C2=O` [Example 51] the value was 2.2 nM; for `O=C1c2cc3ccccc3cc2C(=O)N1CCC1CCN(Cc2ccccc2)CC1` [Example 57], 1.2 nM.
For `O=c1c2cc3c(=O)n(CCC4CCN(Cc5ccccc5)CC4)c(=O)c3cc2c(=O)n1CCC1CCN(Cc2ccccc2)CC1` [Example 112], the IC50 came to 0.15 nM.
Still for that read-out and setting: for `Cc1ccc2[nH]c(=O)n(CCC3CCN(Cc4ccccc4)CC3)c(=O)c2c1` [Example 113] the value was 4.7 nM.
The same measure, in the same setting: for `O=c1[nH]c2cc(Cl)ccc2c(=O)n1CCC1CCN(Cc2ccccc2)CC1` [Example 68] the value was 4.5 nM; for `O=C(c1ccccc1)c1ccc2c(c1)C(=O)N(CCC1CCN(Cc3ccccc3)CC1)C2=O` [Example 53], 2.4 nM; for `O=C1c2cccc([N+](=O)[O-])c2C(=O)N1CCC1CCN(Cc2ccccc2)CC1` [Example 47], 9 nM.
The same measure, in the same setting: for `O=C(Nc1ccc2c(c1)C(=O)N(CCC1CCN(Cc3ccccc3)CC1)C2=O)c1ccccc1` [Example 111] the value was 0.88 nM; for `COc1cc2c(cc1Cl)C(=O)N(CCC1CCN(Cc3ccccc3)CC1)C2=O` [Example 56], 3.3 nM; for `O=C1c2nccnc2C(=O)N1CCC1CCN(Cc2ccccc2)CC1` [Example 8, N-[2-(N'-benzylpiperidino-4)ethyl]-2,3-pyrazinedicarboxylic acid imide], 80 nM.
As for `O=C(NCCC1CCN(Cc2ccccc2)CC1)c1ccc(C(=O)NCc2ccccc2)cc1` [Example 26], the IC50 came out at 9 nM.
The same measure, in the same setting: for `CCN(CC)C(=O)c1ccc2c(c1)C(=O)N(CCC1CCN(Cc3ccccc3)CC1)C2=O` [Example 52] the value was 1.5 nM.
Still for that read-out and setting: for `CC(=O)Nc1ccc2c(c1)C(=O)N(CCC1CCN(Cc3ccccc3)CC1)C2=O` [Example 50] the value was 2.8 nM; for `CN(CCC1CCN(Cc2ccc(O)cc2)CC1)C(=O)c1ccc(S(=O)(=O)Cc2ccccc2)cc1` [Example 41], 0.8 nM.
On the same count and under the same terms, for `CN(CCC1CCN(Cc2ccccc2)CC1)C(=O)c1ccncc1` [Example 5, N-methyl-N-[4'-(1'-benzylpiperidyl)ethyl] isonicotinic acid amide hydrochloride] the value was 88 nM; for `O=C1c2cccc3cccc(c23)C(=O)N1CCC1CCN(Cc2ccccc2)CC1` [Example 9, N-[2-(N'-benzylpiperidino-4)ethyl]-1,8-naphthalimide], 5.5 nM; for `CN(CCC1CCN(Cc2ccccc2)CC1)C(=O)c1ccc(-c2ccccc2)cc1` [Example 32], 4.3 nM.
Turning to `O=C1c2ccc(Cl)cc2C(=O)N1CCC1CCN(Cc2ccccc2)CC1` [Example 133], the IC50 was 7.9 nM.
Still for that read-out and setting: for `CN(CCC1CCN(Cc2ccccc2)CC1)C(=O)c1ccc(S(=O)(=O)Cc2ccccc2)cc1` [Example 4, N-methyl-N-[4'-(1'-benzylpiperidine)ethyl]-4-benzylsulfonylbenzamide, hydrochloride] the value was 0.6 nM.
On the same count and under the same terms, for `O=C(NCCC1CCN(Cc2ccccc2)CC1)c1ccc(SCCl)cc1` [Example 115] the value was 6.7 nM; for `O=C(NCCC1CCN(Cc2ccccc2)CC1)c1ccc2c(c1)C(=O)c1ccccc1C2=O` [Example 25], 4.5 nM.

The same series, now with this note: read-out: AChE inhibitory activity IC50.
For `COc1ccc2c(c1)C(=O)N(CCC1CCN(Cc3ccccc3)CC1)C2=O` [Example 54], the IC50 was determined as 8 nM.

For another series, the system named is ddY male mouse. Put plainly: Acute Toxicity Test for ddY Male Mouse. The format is in vivo. The following applies: oral to mouse, 100 mg (mg/kg), ddY male mice. The method, then: Acute Toxicity Test for ddY Male Mouse
Acute toxicity test was carried out using ddY male mice.
Turning to `CN(CCC1CCN(Cc2ccccc2)CC1)C(=O)c1ccncc1` [Example 5, N-methyl-N-[4'-(1'-benzylpiperidyl)ethyl] isonicotinic acid amide hydrochloride], the “number of deaths / number of animals used, 100 mg” value was 1/4.
Same read-out and setting: for `O=c1[nH]c2ccccc2c(=O)n1CCC1CCN(Cc2ccccc2)CC1` [Example 10, 3-[2-(1-benzyl-4-piperidino)ethyl]-2,4-(1H,3H)-quinazolidione.hydrochloride] the value was 3/4; for `CN(CCC1CCN(Cc2ccccc2)CC1)C(=O)c1ccc(S(=O)(=O)Cc2ccccc2)cc1` [Example 4, N-methyl-N-[4'-(1'-benzylpiperidine)ethyl]-4-benzylsulfonylbenzamide, hydrochloride], 0/3.

Staying with this series, now noted: oral to mouse, 300 mg (mg/kg), ddY male mice.
Turning to `O=C1c2ccc([N+](=O)[O-])cc2C(=O)N1CCC1CCN(Cc2ccccc2)CC1` [Example 7, N-[2-(N'-benzylpiperidino-4)ethyl]-4-nitrophthalimide.hydrochloride], the “number of deaths / number of animals used, 300 mg” value is 0/3.
As to `CN(CCC1CCN(Cc2ccccc2)CC1)C(=O)c1ccncc1` [Example 5, N-methyl-N-[4'-(1'-benzylpiperidyl)ethyl] isonicotinic acid amide hydrochloride], the “number of deaths / number of animals used, 300 mg” value is recorded as 4/4.
Still for that read-out and setting: for `CN(CCC1CCN(Cc2ccccc2)CC1)C(=O)c1ccc(S(=O)(=O)Cc2ccccc2)cc1` [Example 4, N-methyl-N-[4'-(1'-benzylpiperidine)ethyl]-4-benzylsulfonylbenzamide, hydrochloride] the value was 2/4.
